{"source": "patent US12458024B2", "about": "“Compound combination with superior herbicidal activity” (priority 2020, dated 2025)", "type_in_all_cases": "in vivo", "key": {"Polygonum convolvulus": {"system": "Polygonum convolvulus", "assay": "Field trial herbicidal action, indaziflam + pelargonic acid, Polygonum convolvulus", "description": "(§1) The following active compounds were tested: • Product PeAc contained 249.96 g a.i./L of pelargonic acid in an EC formulation • Product IAF contained 200 g a.i./L of indaziflam formulated as SC formulation • Product TBA contained 500 g a.i./L of terbutylazine formulated as SC formulation 2. Biological Trials Herbicidal Action (Field Trials)\n(§2) The growth stages of the different weed or crop plant species are indicated according to the BBCH monograph “Growth stages of mono- and dicotyledonous plants”, 2nd edition, 2001, ed. Uwe Meier, Federal Biological Research Centre for Agriculture and Forestry (Biologische Bundesanstalt für Land und Forstwirtschaft). The respective BBCH stages are mentioned in brackets for the different weed or crop plant species and indicate the BBCH stage for the majority of the respective weed or crop plant species.\n(§3) The dose rates of herbicidal ingredients used in each case are indicated for the respective active ingredient in brackets and refer to the amount of active ingredient per hectare (g a.i./ha).\n(§4) • A is the efficacy in % when active compound A is applied at an application rate of a g a.i./ha, • B is the efficacy in % when active compound B is applied at an application rate of b g a.i./ha), • EC is the efficacy in % when the active compounds A and B are applied at application rates of a+b g a.i./ha), respectively, and Then EC=A+B−([…]/100)"}, "Setaria viridis": {"system": "Setaria viridis", "assay": "Field trial herbicidal action, indaziflam + pelargonic acid, Setaria viridis", "description": "as §1, §2, §3, §4"}, "Abutilon theophrasti": {"system": "Abutilon theophrasti", "assay": "Field trial herbicidal action, indaziflam + pelargonic acid, Abutilon theophrasti", "description": "as §1, §2, §3, §4"}, "Panicum maximum": {"system": "Panicum maximum", "assay": "Field trial herbicidal action, indaziflam + pelargonic acid, Panicum maximum", "description": "as §1, §2, §3, §4"}, "Zea mays": {"system": "Zea mays", "assay": "Field trial herbicidal action, indaziflam + pelargonic acid, Zea mays", "description": "as §1, §2, §3, §4"}, "Chenopodium album [1]": {"system": "Chenopodium album", "assay": "Field trial herbicidal action, indaziflam + pelargonic acid, Chenopodium album", "description": "as §1, §2, §3, §4"}, "Echinocloa crus-galli [2]": {"system": "Echinocloa crus-galli", "assay": "Field trial herbicidal action, indaziflam + pelargonic acid, Echinocloa crus-galli", "description": "as §1, §2, §3, §4"}, "Chenopodium album [3]": {"system": "Chenopodium album", "assay": "Field trial herbicidal action, terbuthylazine + pelargonic acid, Chenopodium album", "description": "as §1, §2, §3, §4"}, "Echinocloa crus-galli [4]": {"system": "Echinocloa crus-galli", "assay": "Field trial herbicidal action, terbuthylazine + pelargonic acid, Echinocloa crus-galli", "description": "as §1, §2, §3, §4"}, "Abuthilon theophrasti": {"system": "Abuthilon theophrasti", "assay": "Field trial herbicidal action, terbuthylazine + pelargonic acid, Abuthilon theophrasti", "description": "as §1, §2, §3, §4"}, "Amaranthus retroflexus": {"system": "Amaranthus retroflexus", "assay": "Field trial herbicidal action, terbuthylazine + pelargonic acid, Amaranthus retroflexus", "description": "as §1, §2, §3, §4"}}}
{"smiles": "Cc1ccc2c(c1)C(Nc1nc(N)nc(C(C)F)n1)C(C)C2", "note": "(mixture of isomers) [Indaziflam, N2-[(1R,2S)-2,3-dihydro-2,6-dimethyl-1H-inden-1-yl]-6-[(1RS)-1-fluoroethyl]-1,3,5-triazine-2,4-diamine]", "values": [{"measurement": "Herbicidal Activity 13 DAT [%] (EA)", "setting": "Polygonum convolvulus; 50 g a.i./ha", "result": 55, "unit": "%"}, {"measurement": "Herbicidal Activity 13 DAT [%] (EA)", "setting": "Setaria viridis; 50 g a.i./ha", "result": 0, "unit": "%"}, {"measurement": "Herbicidal Activity 13 DAT [%] (EA)", "setting": "Abutilon theophrasti; 10 g a.i./ha", "result": 60, "unit": "%"}, {"measurement": "Herbicidal Activity 13 DAT [%] (EA)", "setting": "Abutilon theophrasti; 50 g a.i./ha", "result": 92, "unit": "%"}, {"measurement": "Herbicidal Activity 13 DAT [%] (EA)", "setting": "Panicum maximum; 50 g a.i./ha", "result": 5, "unit": "%"}, {"measurement": "Herbicidal Activity 13 DAT [%] (EA)", "setting": "Zea mays; 50 g a.i./ha", "result": 10, "unit": "%"}, {"measurement": "Herbicidal Activity 13 DAT [%] (EA)", "setting": "Chenopodium album [1]; 50 g a.i./ha", "result": 20, "unit": "%"}, {"measurement": "Herbicidal Activity 13 DAT [%] (EA)", "setting": "Echinocloa crus-galli [2]; 50 g a.i./ha", "result": 0, "unit": "%"}]}
{"smiles": "CCCCCCCCC(=O)O", "note": "[Pelargonic acid, nonanoic acid]", "values": [{"measurement": "Herbicidal Activity 13 DAT [%] (EA)", "setting": "Polygonum convolvulus; 6000 g a.i./ha", "result": 40, "unit": "%"}, {"measurement": "Herbicidal Activity 13 DAT [%] (EA)", "setting": "Setaria viridis; 6000 g a.i./ha", "result": 10, "unit": "%"}, {"measurement": "Herbicidal Activity 13 DAT [%] (EA)", "setting": "Setaria viridis; 16000 g a.i./ha", "result": 45, "unit": "%"}, {"measurement": "Herbicidal Activity 13 DAT [%] (EA)", "setting": "Abutilon theophrasti; 6000 g a.i./ha", "result": 45, "unit": "%"}, {"measurement": "Herbicidal Activity 13 DAT [%] (EA)", "setting": "Abutilon theophrasti; 16000 g a.i./ha", "result": 88, "unit": "%"}, {"measurement": "Herbicidal Activity 13 DAT [%] (EA)", "setting": "Panicum maximum; 6000 g a.i./ha", "result": 20, "unit": "%"}, {"measurement": "Herbicidal Activity 13 DAT [%] (EA)", "setting": "Panicum maximum; 16000 g a.i./ha", "result": 50, "unit": "%"}, {"measurement": "Herbicidal Activity 14 DAT [%] (EA)", "setting": "Chenopodium album [3]; 6000 g a.i./ha", "result": 20, "unit": "%"}, {"measurement": "Herbicidal Activity 14 DAT [%] (EA)", "setting": "Chenopodium album [3]; 12000 g a.i./ha", "result": 88, "unit": "%"}, {"measurement": "Herbicidal Activity 14 DAT [%] (EA)", "setting": "Chenopodium album [3]; 16000 g a.i./ha", "result": 97, "unit": "%"}, {"measurement": "Herbicidal Activity 14 DAT [%] (EA)", "setting": "Echinocloa crus-galli [4]; 6000 g a.i./ha", "result": 13, "unit": "%"}, {"measurement": "Herbicidal Activity 14 DAT [%] (EA)", "setting": "Echinocloa crus-galli [4]; 12000 g a.i./ha", "result": 30, "unit": "%"}, {"measurement": "Herbicidal Activity 14 DAT [%] (EA)", "setting": "Echinocloa crus-galli [4]; 16000 g a.i./ha", "result": 33, "unit": "%"}, {"measurement": "Herbicidal Activity 13 DAT [%] (EA)", "setting": "Zea mays; 6000 g a.i./ha", "result": 38, "unit": "%"}, {"measurement": "Herbicidal Activity 13 DAT [%] (EA)", "setting": "Zea mays; 16000 g a.i./ha", "result": 65, "unit": "%"}, {"measurement": "Herbicidal Activity 14 DAT [%] (EA)", "setting": "Abuthilon theophrasti; 6000 g a.i./ha", "result": 30, "unit": "%"}, {"measurement": "Herbicidal Activity 14 DAT [%] (EA)", "setting": "Abuthilon theophrasti; 12000 g a.i./ha", "result": 57, "unit": "%"}, {"measurement": "Herbicidal Activity 14 DAT [%] (EA)", "setting": "Abuthilon theophrasti; 16000 g a.i./ha", "result": 57, "unit": "%"}, {"measurement": "Herbicidal Activity 13 DAT [%] (EA)", "setting": "Chenopodium album [1]; 6000 g a.i./ha", "result": 40, "unit": "%"}, {"measurement": "Herbicidal Activity 13 DAT [%] (EA)", "setting": "Chenopodium album [1]; 16000 g a.i./ha", "result": 80, "unit": "%"}, {"measurement": "Herbicidal Activity 14 DAT [%] (EA)", "setting": "Amaranthus retroflexus; 6000 g a.i./ha", "result": 13, "unit": "%"}, {"measurement": "Herbicidal Activity 14 DAT [%] (EA)", "setting": "Amaranthus retroflexus; 12000 g a.i./ha", "result": 90, "unit": "%"}, {"measurement": "Herbicidal Activity 14 DAT [%] (EA)", "setting": "Amaranthus retroflexus; 16000 g a.i./ha", "result": 93, "unit": "%"}, {"measurement": "Herbicidal Activity 13 DAT [%] (EA)", "setting": "Echinocloa crus-galli [2]; 6000 g a.i./ha", "result": 0, "unit": "%"}, {"measurement": "Herbicidal Activity 13 DAT [%] (EA)", "setting": "Echinocloa crus-galli [2]; 16000 g a.i./ha", "result": 25, "unit": "%"}]}
{"smiles": "CCNc1nc(Cl)nc(NC(C)(C)C)n1", "note": "[Terbuthylazin, terbuthylazine]", "values": [{"measurement": "Herbicidal Activity 14 DAT [%] (EA)", "setting": "Chenopodium album [3]; 125 g a.i./ha", "result": 0, "unit": "%"}, {"measurement": "Herbicidal Activity 14 DAT [%] (EA)", "setting": "Chenopodium album [3]; 250 g a.i./ha", "result": 13, "unit": "%"}, {"measurement": "Herbicidal Activity 14 DAT [%] (EA)", "setting": "Chenopodium album [3]; 500 g a.i./ha", "result": 67, "unit": "%"}, {"measurement": "Herbicidal Activity 14 DAT [%] (EA)", "setting": "Chenopodium album [3]; 750 g a.i./ha", "result": 78, "unit": "%"}, {"measurement": "Herbicidal Activity 14 DAT [%] (EA)", "setting": "Echinocloa crus-galli [4]; 125 g a.i./ha", "result": 0, "unit": "%"}, {"measurement": "Herbicidal Activity 14 DAT [%] (EA)", "setting": "Echinocloa crus-galli [4]; 250 g a.i./ha", "result": 0, "unit": "%"}, {"measurement": "Herbicidal Activity 14 DAT [%] (EA)", "setting": "Echinocloa crus-galli [4]; 500 g a.i./ha", "result": 0, "unit": "%"}, {"measurement": "Herbicidal Activity 14 DAT [%] (EA)", "setting": "Echinocloa crus-galli [4]; 750 g a.i./ha", "result": 0, "unit": "%"}, {"measurement": "Herbicidal Activity 14 DAT [%] (EA)", "setting": "Abuthilon theophrasti; 125 g a.i./ha", "result": 0, "unit": "%"}, {"measurement": "Herbicidal Activity 14 DAT [%] (EA)", "setting": "Abuthilon theophrasti; 250 g a.i./ha", "result": 7, "unit": "%"}, {"measurement": "Herbicidal Activity 14 DAT [%] (EA)", "setting": "Abuthilon theophrasti; 500 g a.i./ha", "result": 7, "unit": "%"}, {"measurement": "Herbicidal Activity 14 DAT [%] (EA)", "setting": "Abuthilon theophrasti; 750 g a.i./ha", "result": 20, "unit": "%"}, {"measurement": "Herbicidal Activity 14 DAT [%] (EA)", "setting": "Amaranthus retroflexus; 125 g a.i./ha", "result": 0, "unit": "%"}, {"measurement": "Herbicidal Activity 14 DAT [%] (EA)", "setting": "Amaranthus retroflexus; 250 g a.i./ha", "result": 7, "unit": "%"}, {"measurement": "Herbicidal Activity 14 DAT [%] (EA)", "setting": "Amaranthus retroflexus; 500 g a.i./ha", "result": 47, "unit": "%"}, {"measurement": "Herbicidal Activity 14 DAT [%] (EA)", "setting": "Amaranthus retroflexus; 750 g a.i./ha", "result": 63, "unit": "%"}]}
